Measured values published in US9029389B2 (Institut Pasteur Korea, priority 2011, dated 2015).

Biological target: T1, Human 5-lipoxygenase (Homo sapiens, UniProt P09917)
T1 construct: purchased Cayman 60402; host or cells: insect cells
T1 sequence (P09917 1-674): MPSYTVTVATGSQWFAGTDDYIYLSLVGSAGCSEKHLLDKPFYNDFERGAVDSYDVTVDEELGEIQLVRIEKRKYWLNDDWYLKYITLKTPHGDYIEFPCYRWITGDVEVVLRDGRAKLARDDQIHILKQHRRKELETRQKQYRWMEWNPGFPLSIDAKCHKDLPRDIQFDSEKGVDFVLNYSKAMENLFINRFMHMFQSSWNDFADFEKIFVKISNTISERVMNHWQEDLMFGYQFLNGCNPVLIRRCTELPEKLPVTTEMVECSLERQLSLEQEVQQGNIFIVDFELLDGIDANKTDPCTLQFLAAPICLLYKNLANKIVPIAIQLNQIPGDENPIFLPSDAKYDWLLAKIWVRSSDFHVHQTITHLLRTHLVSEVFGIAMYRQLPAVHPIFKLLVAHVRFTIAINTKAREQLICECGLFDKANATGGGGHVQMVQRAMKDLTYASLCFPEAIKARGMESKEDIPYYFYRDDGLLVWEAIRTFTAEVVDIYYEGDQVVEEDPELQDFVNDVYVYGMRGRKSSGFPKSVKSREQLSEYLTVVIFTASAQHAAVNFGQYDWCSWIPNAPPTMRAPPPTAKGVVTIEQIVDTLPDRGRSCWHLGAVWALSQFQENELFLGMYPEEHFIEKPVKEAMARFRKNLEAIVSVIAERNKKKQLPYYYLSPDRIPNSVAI
Experiment: Activity of compounds against 5-LO enzyme (LTB4 measurement and/or fluorescence method)
Assay type: biochemical
Details: for inhibition at 10 µM: 5-LO, single concentration of 10 uM in duplicate; for IC50: 6 or 11 point dose response in duplicate
Summary of the method: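 Two read-outs: LTB4 measured by EIA and/or LC/MS/MS with LTB4-d4 standard after 15 min RT compound preincubation with insect-cell 5-LO and a 5 min 37 °C reaction on 3 uM arachidonic acid (0.1 mM ATP, pH 7.4). The room-temperature fluorescence format used 20 uM H2DCFDA, 100 uM ATP, 3 uM arachidonic acid, 5 min; IC50 from 6/11-point curves.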

Row | inhibition at 10 µM [%] | IC50 [nM] | Structure (SMILES)
1 | < 40 |  | CCc1nc2ccc(Cl)cn2c1C(=O)NCc1ccc(N2CCC(c3ccc(OC(F)(F)F)cc3)CC2)cc1 [compound 267, 6-Chloro-2-ethyl-N-(4-(4-(4-(trifluoromethoxy)phenyl)piperidin-1-yl)benzyl)imidazo[1,2-a]pyridine-3-carboxamide]
2 | 40 to 69 |  | CCc1nc2cc(Cl)ccn2c1C(=O)NCc1ccc(N2CCC(c3ccc(OC(F)(F)F)cc3)CC2)cc1 [compound 268, 7-Chloro-2-ethyl-N-(4-(4-(4-(trifluoromethoxy)phenyl)piperidin-1-yl)benzyl)imidazo[1,2-a]pyridine-3-carboxamide]
3 | 40 to 69 |  | CCOC(=O)C1CCN(c2ccc(CNC(=O)c3c(CC)nc4ccc(Cl)cn34)cc2)CC1 [compound 269, Ethyl1-(4-((6-chloro-2-ethylimidazo[1,2-a]pyridine-3-carboxamido)methyl)phenyl)piperidine-4-carboxylate]
4 | 40 to 69 |  | CCOC(=O)C1CCN(c2ccc(CNC(=O)c3c(CC)nc4cc(Cl)ccn34)cc2)CC1 [compound 270, Ethyl 1-(4-((7-chloro-2-ethylimidazo[1,2-a]pyridine-3-carboxamido)methyl)phenyl)piperidine-4-carboxylate]
5 | < 40 |  | CCc1nc2ccc(OC)cn2c1C(=O)NCc1ccc(N2CCOCC2)cc1 [compound 272]
6 | < 40 |  | CCc1nc2cc(Cl)ccn2c1C(=O)NCc1ccc(N2CCC(C(=O)O)CC2)cc1 [compound 275, 1-(4-((7-Chloro-2-ethylimidazo[1,2-a]pyridine-3-carboxamido)methyl)phenyl)piperidine-4-carboxylic acid]
7 | < 40 |  | CCc1nc2ccc(Cl)cn2c1C(=O)NCc1ccc(N2CCC(COC(C)C)CC2)cc1 [compound 276, 6-Chloro-2-ethyl-N-(4-(4-(isopropoxymethyl)piperidin-1-yl)benzyl)imidazo[1,2-a]pyridine-3-carboxamide]
8 | < 40 |  | CCc1nc2cc(Cl)ccn2c1C(=O)NCc1ccc(N2CCC(COC(C)C)CC2)cc1 [compound 277, 7-Chloro-2-ethyl-N-(4-(4-(isopropoxymethyl)piperidin-1-yl)benzyl)imidazo[1,2-a]pyridine-3-carboxamide]
9 | < 40 |  | CCc1nc2cc(C)ccn2c1C(=O)NCc1ccc(OC(F)(F)F)cc1 [compound 280, 2-Ethyl-7-methyl-N-(4-(trifluoromethoxy)benzyl)imidazo[1,2-a]pyridine-3-carboxamide]
10 | 40 to 69 |  | CCc1nc2cc(Br)ccn2c1C(=O)NCc1ccc(OC(F)(F)F)cc1 [compound 281, 7-Bromo-2-ethyl-N-(4-(trifluoromethoxy)benzyl)imidazo[1,2-a]pyridine-3-carboxamide]
11 | < 40 |  | CCc1nc2c(F)cccn2c1C(=O)NCc1ccc(OC(F)(F)F)cc1 [compound 282, 2-Ethyl-8-fluoro-N-(4-(trifluoromethoxy)benzyl)imidazo[1,2-a]pyridine-3-carboxamide]
12 | < 40 |  | CCc1nc2c(-c3ccncc3)cccn2c1C(=O)NCc1ccc(N2CCN(c3ccc(F)cc3)CC2)cc1 [compound 283, 2-Ethyl-N-(4-(4-(4-fluorophenyl)piperazin-1-yl)benzyl)-8-(pyridin-4-yl)imidazo[1,2-a]pyridine-3-carboxamide]

The remaining lines, values behind:

Row | Structure (SMILES) | inhibition at 10 µM [%] | IC50 [nM]
13 | CCc1nc2cc(Cl)ccn2c1C(=O)NCc1ccc(N2CCC(C)CC2)cc1 [compound 195, 7-Chloro-2-ethyl-N-(4-(4-methylpiperidin-1-yl)benzyl)imidazo[1,2-a]pyridine-3-carboxamide] | 40 to 69 | 
14 | CCc1nc2cc(Cl)ccn2c1C(=O)NCc1ccc2[nH]c(CN3CCOCC3)nc2c1 [compound 196, 7-Chloro-2-ethyl-N-((2-(morpholinomethyl)-1H-benzo[d]imidazol-5-yl)methyl)imidazo[1,2-a]pyridine-3-carboxamide] | < 40 | 
15 | CCc1nc2cc(Cl)ccn2c1C(=O)NCc1ccc(N2CCC(=O)CC2)cc1 [compound 200, 7-Chloro-2-ethyl-N-(4-(4-oxopiperidin-1-yl)benzyl)imidazo[1,2-a]pyridine-3-carboxamide] | 40 to 69 | 
16 | CCc1nc2cc(Cl)ccn2c1C(=O)NCc1ccc(N2CC3CC=CCC3C2)cc1 (stereo not drawn) [compound 202, 7-Chloro-N-(4-(3a,4-dihydro-1H-isoindol-2(3H7H,7aH)-yl)benzyl)-2-ethylimidazo[1,2-a]pyridine-3-carboxamide] | 40 to 69 | 
17 | CCc1nc2cc(Cl)ccn2c1C(=O)OCc1ccc(Oc2ccc(F)cc2)cc1 [compound 203] | < 40 | 
18 | CCc1nc2ccc(F)cn2c1C(=O)NCc1ccc(OCc2ccc(OC(F)(F)F)cc2)cc1 [compound 205, 2-Ethyl-6-fluoro-N-(4-(4-(trifluoromethoxy)benzyloxy)benzyl)imidazo[1,2-a]pyridine-3-carboxamide] | 40 to 69 | 
19 | CCc1nc2cc(Cl)ccn2c1C(=O)NCc1ccc(N2CC3CCCCC3C2)cc1 (stereo not drawn) [compound 216, N-(4-(1H-isoindol-2(3H,3aH,4H,5H,6H,7H,7aH)-yl)benzyl)-7-chloro-2-ethylimidazo[1,2-a]pyridine-3-carboxamide] | 40 to 69 | 
20 | CCc1nc2cc(Cl)ccn2c1C(=O)NCc1ccc(-n2cc3c(c2)CCCC3)cc1 [compound 217, 7-Chloro-2-ethyl-N-(4-(4,5,6,7-tetrahydro-2H-isoindol-2-yl)benzyl)imidazo[1,2-a]pyridine-3-carboxamide] | > 69 | 1000 to 20000
21 | CCc1nc2ccc(C)cn2c1C(=O)NCc1ccc(Oc2ccc(OC(F)(F)F)cc2)cc1 [compound 232, 2-Ethyl-6-methyl-N-(4-(4-(trifluoromethoxy)phenoxy)benzyl)imidazo[1,2-a]pyridine-3-carboxamide] | > 69 | < 1000
22 | CCc1nc2ccc(F)cn2c1C(=O)NCc1ccc(N2CCOCC2)cc1 [compound 241, 2-Ethyl-6-fluoro-N-(4-morpholinobenzyl)imidazo[1,2-a]pyridine-3-carboxamide] | < 40 | 
23 | CCc1nc2ccc(Cl)cn2c1C(=O)NCc1ccc(N2CCCCC2C)cc1 (stereo not drawn) [compound 251, 6-chloro-2-ethyl-N-(4-(2-methylpiperidin-1-yl)benzyl)imidazo[1,2-a]pyridine-3-carboxamide] | < 40 | 
24 | CCc1nc2cc(N3CCN(c4ccc(F)cc4)CC3)ccn2c1C(=O)NCc1ccc(N2CCOCC2)cc1 [compound 256, 2-Ethyl-7-(4-(4-fluorophenyl)piperazin-1-yl)-N-(4-morpholinobenzyl)imidazo[1,2-a]pyridine-3-carboxamide] | < 40 | 
25 | CCc1nc2ccc(Cl)cn2c1C(=O)NCc1ccc2oc(-c3ccc(F)cc3)nc2c1 [compound 258, 6-Chloro-2-ethyl-N-((2-(4-fluorophenyl)benzo[d]oxazol-5-yl)methyl)imidazo[1,2-a]pyridine-3-carboxamide] | < 40 | 
26 | CCc1nc2cc(Cl)ccn2c1C(=O)NCc1ccc2oc(-c3ccc(F)cc3)nc2c1 [compound 259, 7-Chloro-2-ethyl-N-((2-(4-fluorophenyl)benzo[d]oxazol-5-yl)methyl)imidazo[1,2-a]pyridine-3-carboxamide] | < 40 | 
27 | CCc1nc2c(Br)cccn2c1C(=O)NCc1ccc(N2CCN(c3ccc(F)cc3)CC2)cc1 [compound 260, 8-Bromo-2-ethyl-N-(4-(4-(4-fluorophenyl)piperazin-1-yl)benzyl)imidazo[1,2-a]pyridine-3-carboxamide] | > 69 | > 20000
28 | CCc1nc2cc(OC)ccn2c1C(=O)NCc1ccc(N2CCOCC2)cc1 [compound 261, 2-Ethyl-7-methoxy-N-(4-morpholinobenzyl)imidazo[1,2-a]pyridine-3-carboxamide] | < 40 | 
29 | CCc1nc2c(OC)cccn2c1C(=O)NCc1ccc(N2CCOCC2)cc1 [compound 262, 2-Ethyl-8-methoxy-N-(4-morpholinobenzyl)imidazo[1,2-a]pyridine-3-carboxamide] | < 40 | 
30 | CCc1nc2c(OC)cccn2c1C(=O)NCc1ccc(N2CCN(c3ccc(F)cc3)CC2)cc1 [compound 263, 2-Ethyl-N-(4-(4-(4-fluorophenyl)piperazin-1-yl)benzyl)-8-methoxyimidazo[1,2-a]pyridine-3-carboxamide] | 40 to 69 | 
31 | CCc1nc2cc(OC)ccn2c1C(=O)NCc1ccc(N2CCN(c3ccc(F)cc3)CC2)cc1 [compound 264, 2-Ethyl-N-(4-(4-(4-fluorophenyl)piperazin-1-yl)benzyl)-7-methoxyimidazo[1,2-a]pyridine-3-carboxamide] | < 40 | 
32 | CCc1nc2ccccn2c1C(=O)NCc1ccc(N2CCC(c3ccc(F)cc3)CC2)cc1 [compound 265, 2-Ethyl-N-(4-(4-(4-fluorophenyl)piperidin-1-yl)benzyl)imidazo[1,2-a]pyridine-3-carboxamide] | > 69 | < 1000
